Target: CFTR-mediated chloride transport (Homo sapiens, UniProt P13569)
Experiment: Corrector Assay A - membrane potential dye assay (enteroid cells)
Settings: for Corrector Assay A % activity: % of chloride transport of triple combination control (1 μM (14S)-dispiro macrocycle + 3 μM tezacaftor + 300 nM ivacaftor); for EC50: read-out: Corrector Assay A EC50, human intestinal enteroid cells, 18-24 h incubation, acute 10 μM forskolin + 300 nM ivacaftor

Compound	Corrector Assay A % activity	EC50 [µM]
COC[C@@H]1CC[C@@H]2CN(c3nc(C(C)(C)C)ccc3C(=O)NS(=O)(=O)c3cccc(n3)N1)C(C)(C)C2 (single isomer, unassigned) [Compound 277]	+++ (+++ is >60%)	< 1
Cn1ccc(C2CC[C@@H]3CN(c4nc(C(C)(C)C)ccc4C(=O)NS(=O)(=O)c4cccc(n4)N2)C(C)(C)C3)n1 (single isomer, unassigned) [Compound 278]	++ (++ is 30-60%)	< 1
Cn1ccc(C2CC[C@@H]3CN(c4nc(C(C)(C)C)ccc4C(=O)NS(=O)(=O)c4cccc(n4)N2)C(C)(C)C3)n1 (single isomer, unassigned) [Compound 279]	+++ (+++ is >60%)	< 1
Cn1cc(C2CC[C@@H]3CN(c4nc(C(C)(C)C)ccc4C(=O)NS(=O)(=O)c4cccc(n4)N2)C(C)(C)C3)cn1 (single isomer, unassigned) [Compound 280]	+++ (+++ is >60%)	< 1
Cn1cc(C2CC[C@@H]3CN(c4nc(C(C)(C)C)ccc4C(=O)NS(=O)(=O)c4cccc(n4)N2)C(C)(C)C3)cn1 (single isomer, unassigned) [Compound 281]	+++ (+++ is >60%)	< 1
CC(C)(C)c1ccc2c(n1)N1C[C@@H](CCC(c3cccnc3)Nc3cccc(n3)S(=O)(=O)NC2=O)CC1(C)C (single isomer, unassigned) [Compound 282]	+++ (+++ is >60%)	< 1
CC(C)(C)c1ccc2c(n1)N1C[C@@H](CCC(c3cccnc3)Nc3cccc(n3)S(=O)(=O)NC2=O)CC1(C)C (single isomer, unassigned) [Compound 283]	+++ (+++ is >60%)	< 1
Cn1nccc1C1CC[C@@H]2CN(c3nc(C(C)(C)C)ccc3C(=O)NS(=O)(=O)c3cccc(n3)N1)C(C)(C)C2 (single isomer, unassigned) [Compound 284]	++ (++ is 30-60%)	< 1
Cn1nccc1C1CC[C@@H]2CN(c3nc(C(C)(C)C)ccc3C(=O)NS(=O)(=O)c3cccc(n3)N1)C(C)(C)C2 (single isomer, unassigned) [Compound 285]	+++ (+++ is >60%)	< 1
CC(C)C1CC[C@@H]2CN(c3nc(C(C)(C)C)ccc3C(=O)NS(=O)(=O)c3cccc(n3)N1)C(C)(C)C2 (single isomer, unassigned) [Compound 286]	+++ (+++ is >60%)	< 1
CC(C)C1CC[C@@H]2CN(c3nc(C(C)(C)C)ccc3C(=O)NS(=O)(=O)c3cccc(n3)N1)C(C)(C)C2 (single isomer, unassigned) [Compound 287]	+++ (+++ is >60%)	< 1
CC(C)COc1cc(F)cc(-c2ccc3c(n2)N2C[C@@H](CCC(c4ccccn4)Nc4cccc(n4)S(=O)(=O)NC3=O)CC2(C)C)c1 (single isomer, unassigned) [Compound 351]	+++ (+++ is >60%)	< 1
CC(C)COc1cc(F)cc(-c2ccc3c(n2)N2C[C@@H](CCC(c4ccccn4)Nc4cccc(n4)S(=O)(=O)NC3=O)CC2(C)C)c1 (single isomer, unassigned) [Compound 352]	++ (++ is 30-60%)	< 1
CC(C)C1CC[C@@H]2CN(c3nc(-n4ccc(OCCC5C6(CC6)C56CC6)n4)ccc3C(=O)NS(=O)(=O)c3cccc(n3)N1)C(C)(C)C2 (single isomer, unassigned) [Compound 353]	+++ (+++ is >60%)	< 1
CC(C)C1CC[C@@H]2CN(c3nc(-n4ccc(OCCC5C6(CC6)C56CC6)n4)ccc3C(=O)NS(=O)(=O)c3cccc(n3)N1)C(C)(C)C2 (single isomer, unassigned) [Compound 354]	+++ (+++ is >60%)	< 1
CC(C)C1CC[C@@H]2CN(c3nc(-n4ccc(OCCC5(C(F)(F)F)CC5)n4)ccc3C(=O)NS(=O)(=O)c3cccc(n3)N1)C(C)(C)C2 (single isomer, unassigned) [Compound 357]	+++ (+++ is >60%)	< 1

Compound	Corrector Assay A % activity	EC50 [µM]
CC(C)(C)c1ccc2c(n1)N1C[C@@H](CCC(C(C)(C)O)Nc3cccc(n3)S(=O)(=O)NC2=O)CC1(C)C (stereo partly drawn) [Compound 12, (14S)-8-tert-Butyl-17-(2-hydroxypropan-2-yl)-12,12-dimethyl-2λ^6-thia-3,9,11,18,23-pentaazatetracyclo[17.3.1.111,14.05,10]tetracosa-1(23),5(10),6,8,19,21-hexaene-2,2,4-trione]	+++ (+++ is >60%)	< 1
CC(C)(C)c1ccc2c(n1)N1CC(CCC(C(C)(C)O)Nc3cccc(n3)S(=O)(=O)NC2=O)CC1(C)C (centres unmarked) [Compound 13]	++ (++ is 30-60%)	< 1
CC(C)(C)c1ccc2c(n1)N1C[C@@H](CCC3CCCC(=O)N3c3cccc(n3)S(=O)(=O)NC2=O)CC1(C)C (stereo partly drawn) [Compound 14, (10S)-16-tert-Butyl-12,12-dimethyl-22λ^6-thia-2,13,15,21,27-pentaazapentacyclo[21.3.1.110,13.02,7.014,19]octacosa-1(26),14(19),15,17,23(27),24-hexaene-3,20,22,22-tetrone]	++ (++ is 30-60%)	< 1
CC(C)(C)c1ccc2c(n1)N1C[C@@H](CCC(CCCC(=O)NCc3ccccc3)Nc3cccc(n3)S(=O)(=O)NC2=O)CC1(C)C (stereo partly drawn) [Compound 15, N-benzyl-4-[(14S)-8-tert-butyl-12,12-dimethyl-2,2,4-trioxo-2λ^6-thia-3,9,11,18,23-pentaazatetracyclo[17.3.1.111,14.05,10]tetracosa-1(23),5(10),6,8,19,21-hexaen-17-yl]butanamide]	+++ (+++ is >60%)	< 1
CC(C)(C)NC(=O)CCCC1CC[C@@H]2CN(c3nc(C(C)(C)C)ccc3C(=O)NS(=O)(=O)c3cccc(n3)N1)C(C)(C)C2 (stereo partly drawn) [Compound 16, N-tert-butyl-4-[(14S)-8-tert-butyl-12,12-dimethyl-2,2,4-trioxo-2λ^6-thia-3,9,11,18,23-pentaazatetracyclo[17.3.1.111,14.05,10]tetracosa-1(23),5(10),6,8,19,21-hexaen-17-yl]butanamide]	+++ (+++ is >60%)	< 1
CC(C)N(C(=O)CCCC1CC[C@@H]2CN(c3nc(C(C)(C)C)ccc3C(=O)NS(=O)(=O)c3cccc(n3)N1)C(C)(C)C2)C(C)C (stereo partly drawn) [Compound 17, 4-[(14S)-8-tert-butyl-12,12-dimethyl-2,2,4-trioxo-2λ^6-thia-3,9,11,18,23-pentaazatetracyclo[17.3.1.111,14.05,10]tetracosa-1(23),5(10),6,8,19,21-hexaen-17-yl]-N,N-bis(propan-2-yl)butanamide]	+++ (+++ is >60%)	< 1
CN(C)C(=O)CCCC1CC[C@@H]2CN(c3nc(C(C)(C)C)ccc3C(=O)NS(=O)(=O)c3cccc(n3)N1)C(C)(C)C2 (stereo partly drawn) [Compound 18, 4-[(14S)-8-tert-Butyl-12,12-dimethyl-2,2,4-trioxo-2λ^6-thia-3,9,11,18,23-pentaazatetracyclo[17.3.1.111,14.05,10]tetracosa-1(23),5(10),6,8,19,21-hexaen-17-yl]-N,N-dimethylbutanamide]	+++ (+++ is >60%)	< 1
CC(C)(C)c1ccc2c(n1)N1C[C@@H](CCC(CCCC(=O)O)Nc3cccc(n3)S(=O)(=O)NC2=O)CC1(C)C (stereo partly drawn) [Compound 19, 4-[(14S)-8-tert-Butyl-12,12-dimethyl-2,2,4-trioxo-2λ^6-thia-3,9,11,18,23-pentaazatetracyclo[17.3.1.111,14.05,10]tetracosa-1(23),5(10),6,8,19,21-hexaen-17-yl]butanoic acid]	+++ (+++ is >60%)	1 to 3
CC(C)(C)c1ccc2c(n1)N1C[C@@H](CCC(c3ccc(C4CC(F)(F)C4)cn3)Nc3cccc(n3)S(=O)(=O)NC2=O)CC1(C)C (some centres unmarked) [Compound 21]	+++ (+++ is >60%)	< 1
CC(C)(C)c1ccc2c(n1)N1C[C@@H](CCC(c3ccc(C4COC4)cn3)Nc3cccc(n3)S(=O)(=O)NC2=O)CC1(C)C (stereo partly drawn) [Compound 29, (14S)-8-tert-butyl-12,12-dimethyl-17-[5-(oxetan-3-yl)pyridin-2-yl]-2λ^6-thia-3,9,11,18,23-pentaazatetracyclo[17.3.1.111,14.05,10]tetracosa-1(23),5(10),6,8,19,21-hexaene-2,2,4-trione]	+++ (+++ is >60%)	< 1
CC(C)(C)c1ccc2c(n1)N1C[C@@H](CC[C@H](c3cccc(CNCC(F)(F)F)n3)Nc3cccc(n3)S(=O)(=O)NC2=O)CC1(C)C [Compound 50, (14S,17R)-8-tert-Butyl-12,12-dimethyl-17-(6-{[(2,2,2-trifluoroethyl)amino]methyl}pyridin-2-yl)-2λ^6-thia-3,9,11,18,23-pentaazatetracyclo[17.3.1.111,14.05,10]tetracosa-1(22),5,7,9,19(23),20-hexaene-2,2,4-trione]	+++ (+++ is >60%)	1 to 3
Cn1nccc1-c1ccc(C2CC[C@@H]3CN(c4nc(C(C)(C)C)ccc4C(=O)NS(=O)(=O)c4cccc(n4)N2)C(C)(C)C3)nc1 (some centres unmarked) [Compound 57]	++ (++ is 30-60%)	< 1
Cn1nccc1-c1ccc(C2CC[C@@H]3CN(c4nc(C(C)(C)C)ccc4C(=O)NS(=O)(=O)c4cccc(n4)N2)C(C)(C)C3)nc1 (some centres unmarked) [Compound 58]	+++ (+++ is >60%)	< 1
Cn1ccc(-c2ccc(C3CC[C@@H]4CN(c5nc(C(C)(C)C)ccc5C(=O)NS(=O)(=O)c5cccc(n5)N3)C(C)(C)C4)nc2)n1 (some centres unmarked) [Compound 59]	+ (+ is <30%)	< 1
Cn1ccc(-c2ccc(C3CC[C@@H]4CN(c5nc(C(C)(C)C)ccc5C(=O)NS(=O)(=O)c5cccc(n5)N3)C(C)(C)C4)nc2)n1 (some centres unmarked) [Compound 60]	+++ (+++ is >60%)	< 1
